This is an account of results in patent US10626110B2, “Polymorph of pazopanib hydrochloride and preparation process thereof” (FORMOSA LABORATORIES, INC., priority 2018, dated 2020).

Where a name gives a salt, the structure may show the parent alone. Read-outs that look alike come from different tables or passages of the source.

The nature of data set [1]: Solubility analysis in 0.1 M HCl and phosphate buffer (pH 4.5 and pH 6.8). In kind it is physicochemical. The source says:
The solubility of Pazopanib HCl Form F and Pazopanib HCl Form A in 0.1 M HCl and phosphate buffer (pH4.5 and pH6.8) was examined in the present analysis.

Data set [2] is described as follows: Stability / storage (statement only, no method described). In kind it is physicochemical. As to conditions: no data given.

With `Cc1ccc(Nc2nccc(N(C)c3ccc4c(C)n(C)nc4c3)n2)cc1S(N)(=O)=O` [Pazopanib HCl Form A, Pazopanib hydrochloride], the “Solubility (descriptive term)” value was “Very slightly soluble” in data set [1] (0.1M HCl); “Practically insoluble” in data set [1] (Phosphate buffer, pH 4.5); “Practically insoluble” in data set [1] (Phosphate buffer, pH 6.8). Further, in data set [1] (0.1 M HCl, simulated gastric fluid, thermodynamic from solid, 0.1M HCl, read-out: Solubility), the solubility (in general, the dissolved amount per volume that the medium holds) is 584 µg/mL.

As to `Cc1ccc(Nc2nccc(N(C)c3ccc4c(C)n(C)nc4c3)n2)cc1S(N)(=O)=O` [Pazopanib HCl Form F, Pazopanib hydrochloride], the “Solubility (descriptive term)” value in data set [1] (0.1M HCl) was “Very slightly soluble”; in data set [1] (Phosphate buffer, pH 4.5), “Practically insoluble”; in data set [1] (Phosphate buffer, pH 6.8), “Practically insoluble”. Further, the “Solubility compared with Pazopanib HCl Form A” value in data set [1] (0.1M HCl) is given as “better solubility in 0.1 M HCl than Pazopanib HCl Form A”. In addition, the solubility in data set [1] (0.1M HCl, hydrochloride) was 669 µg/mL. Also, in data set [2], the Stability entry is “better stability, and can be stored for a long time”.
